Test results taken from patent US11084826B2, “RSV antiviral pyrazolo- and triazolo-pyrimidine compounds” (Janssen Sciences Ireland Unlimited Company, priority 2015, dated 2021).
Where two headings read alike, the source gives them in different places.

What was measured:
HeLa cells = assay: Cytotoxicity in HeLa cells, ATP content measured with the ATPlite kit; format: cell-based
[1] = as above; format: cell-based; conditions: human, TOX HELA pCC50
rgRSV224 virus = assay: Antiviral activity: inhibition of rgRSV224 (GFP-expressing RSV) replication in HeLa cells, GFP expression read-out; format: cell-based, respiratory syncytial virus (RSV); conditions: for RSV HELA pEC50: rgRSV224 virus (MOI=1) in HeLa cells, GFP read-out
How it was run: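 HeLa cells (3,000/well) were infected with GFP-expressing rgRSV224 (MOI=1) in the presence of 9 serial 4-fold compound dilutions (0.05% DMSO) and incubated at 37° C, 5% CO2. After three days, GFP expression was measured by laser microscopy. EC50 is the concentration giving 50% inhibition of GFP expression.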

CCc1cc(C(=O)N2CCCCC[C@H]2C)nc2cc(-c3ccc(-n4cc(C(=O)O)cn4)cc3F)nn12 [Compound W2]
TOX HELA pCC50 (HeLa cells; human, 3 days): 4.31 | CC50 at 3 days [1]: > 25.1 µM

CN1CCCCCN1C(=O)c1cc(C2(C)CC2)n2nc(-c3cccc(/C=C/C(=O)O)c3F)cc2n1 [Compound M37]
RSV HELA pEC50 (rgRSV224 virus): 7.10 | TOX HELA pCC50 (HeLa cells): <4

CC(C)Cc1cc(C(=O)N2CCCCC[C@H]2C)nc2cc(-c3ccc(N4CC[C@H](C(=O)O)C4)cc3F)nn12 [Compound W14]
RSV HELA pEC50 (rgRSV224 virus): 7.53 | TOX HELA pCC50 (HeLa cells): 4.29

CCc1cc(C(=O)N2CCCCCC2C)nc2cc(-c3ccc(N(C)C)cc3)nn12 (stereo not shown) [Compound A2]
RSV HELA pEC50 (rgRSV224 virus): 5.52 | TOX HELA pCC50 (HeLa cells): <4.60

CCc1cc(C(=O)N2CCn3nccc3C2C)nc2cc(-c3ccc(C(N)=O)cc3F)nn12 (stereo not shown) [Compound I37]
RSV HELA pEC50 (rgRSV224 virus): 6.24 | TOX HELA pCC50 (HeLa cells): <4.60

CCc1cc(C(=O)N2CCc3ccccc3[C@H]2C)nc2cc(-c3ccc4cc(C(=O)O)ccc4c3F)nn12 [Compound F34]
RSV HELA pEC50 (rgRSV224 virus): 7.46 | TOX HELA pCC50 (HeLa cells): 4.17

C[C@@H]1CCCCCN1C(=O)c1cc(C2CCC2)n2nc(-c3ccc(/C=C/C(=O)O)cc3F)cc2n1 [Compound M19]
EC50 (rgRSV224 virus; human respiratory syncytial virus, HeLa, read-out: RSV HELA pEC50, rgRSV224 virus (MOI=1) in HeLa cells, GFP read-out (converted)): 0.0302 µM | RSV HELA pEC50 (rgRSV224 virus): 7.72 | TOX HELA pCC50 (HeLa cells; human, 3 days): 4.49 | CC50 at 3 days [1]: 38.9 µM
